Results as given in paper PMC6017357, “In Vitro Inhibitory Effects of Synthetic Cannabinoid EAM-2201 on Cytochrome P450 and UDP-Glucuronosyltransferase Enzyme Activities in Human Liver Microsomes” (Molecules : A Journal of Synthetic Chemistry and Natural …, 2018).

Columns and labels:
[1] = target: T1, CYP2D6 (Homo sapiens, UniProt P10635); test: CYP2D6-mediated bufuralol 1′-hydroxylation in pooled human liver microsomes; assay type: in vitro ADME; details: up to 50 µM, without 30-min preincubation
T1 construct: from tissue; host or cells: ultrapooled human liver microsomes
T1 sequence (P10635 whole entry): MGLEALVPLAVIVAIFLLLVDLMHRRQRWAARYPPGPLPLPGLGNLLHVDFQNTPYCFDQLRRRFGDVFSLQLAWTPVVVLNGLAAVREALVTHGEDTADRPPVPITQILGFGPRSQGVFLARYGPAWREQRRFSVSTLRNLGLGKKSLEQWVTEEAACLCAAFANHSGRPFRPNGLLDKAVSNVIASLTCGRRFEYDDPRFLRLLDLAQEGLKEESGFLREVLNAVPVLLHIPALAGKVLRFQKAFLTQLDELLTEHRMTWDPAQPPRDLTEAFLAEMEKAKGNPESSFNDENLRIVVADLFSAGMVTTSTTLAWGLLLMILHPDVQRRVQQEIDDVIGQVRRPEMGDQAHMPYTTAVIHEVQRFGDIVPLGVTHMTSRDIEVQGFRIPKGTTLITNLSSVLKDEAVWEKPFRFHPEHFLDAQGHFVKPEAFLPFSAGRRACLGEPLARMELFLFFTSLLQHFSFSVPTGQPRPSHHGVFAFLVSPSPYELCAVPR
Procedure: (§1) The inhibitory potential (IC50 values) of EAM-2201 on CYP1A2, CYP2A6, CYP2C8, CYP2C9, CYP2C19, CYP2D6 and CYP3A4 were evaluated using ultrapooled human liver microsomes and a cocktail of seven CYP substrates followed by LC-tandem mass spectrometry (LC-MS/MS) as previously described. […] Aliquots (5 µL) of the diluted supernatants were analyzed using LC-MS/MS. […]
(§2) The metabolites formed from CYP substrates were simultaneously quantified using our previously described LC-MS/MS method. […] Quantification was performed by selected reaction monitoring (SRM) of the [M + H]^+ ion and the related product ion for each metabolite: acetaminophen, 152.1 > 110.3; N-desethylamodiaquine, 328.1 > 283.0; 7-hydroxycoumarin, 163.0 > 107.2; 4-hydroxybupropion, 256.1 > 238.0; 4′-hydroxydiclofenac, 312.0 > 231.1; 4′-hydroxy-mephenytoin, 235.1 > 150.1; 1′-hydroxybufuralol, 278.1 > 186.1; 1′-hydroxymidazolam, 341.9 > 324.0; ^13C2,^15N-acetaminophen, 155.1 > 111.2; and d9-1′-hydroxybufuralol, 287.2 > 187.0. […]

[2] = target: T2, CYP1A2 (Homo sapiens, UniProt P05177); test: CYP1A2-mediated phenacetin O-deethylation in pooled human liver microsomes; assay type: in vitro ADME; details: up to 50 µM, without 30-min preincubation
T2 construct: from tissue; host or cells: ultrapooled human liver microsomes
T2 sequence (P05177 1-516): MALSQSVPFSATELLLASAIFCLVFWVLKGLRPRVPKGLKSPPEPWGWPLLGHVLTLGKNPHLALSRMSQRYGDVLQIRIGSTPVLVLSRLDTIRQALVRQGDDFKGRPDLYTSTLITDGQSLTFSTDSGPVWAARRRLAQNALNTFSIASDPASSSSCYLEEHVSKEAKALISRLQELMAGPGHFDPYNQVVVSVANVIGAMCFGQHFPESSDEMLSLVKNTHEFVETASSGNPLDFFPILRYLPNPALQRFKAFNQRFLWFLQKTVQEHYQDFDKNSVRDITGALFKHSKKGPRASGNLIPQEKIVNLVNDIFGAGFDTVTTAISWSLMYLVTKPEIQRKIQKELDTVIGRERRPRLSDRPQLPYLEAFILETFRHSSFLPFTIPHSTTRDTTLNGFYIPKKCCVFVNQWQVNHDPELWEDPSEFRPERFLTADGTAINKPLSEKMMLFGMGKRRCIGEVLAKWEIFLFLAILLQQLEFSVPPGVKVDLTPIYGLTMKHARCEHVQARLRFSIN
Procedure: as §1, §2

CCc1ccc(C(=O)c2cn(CCCCCF)c3ccccc23)c2ccccc12 [EAM-2201, (4-ethyl-1-naphthalenyl)[1-(5-fluoropentyl)-1H-indol-3-yl]-methanone]
inhibition of CYP2D6-mediated bufuralol 1′-hydroxylation [1]: negligibly inhibited
inhibition of CYP1A2-mediated phenacetin O-deethylation [2]: negligibly inhibited
